How the values were obtained:
[1] = tested on: T1, bile salt export pump (BSEP/ABCB11); assay: Vesicular transport assay, BSEP-mediated taurocholic acid uptake in HEK293 membrane vesicles; type: biochemical, human; conditions: 100 μM compound; taurocholic acid 1 μM; solvent control = 100% transport
T1 construct: made in house; host or cells: HEK293 cells transduced with baculovirus; isolated membrane vesicles
Protocol: Cells were harvested three days post transduction by a 5-min centrifugation step at 3,000 g. Cells were resuspended in ice-cold hypotonic buffer (0.5 mM sodium phosphate, 0.1 mM EDTA, pH 7.0) containing protease inhibitors (100 mM phenylmethylsulfonyl fluoride, 5 mg/ml aprotinin, 5 mg/ml leupeptin, 1 mg/ml pepstatin and 1 mg/ml E-64) and shaken at 4°C for 30 min. This lysate was centrifuged 100,000 xg for 30 min at 4°C, after which the pellet was homogenized in ice-cold TS buffer (10 mM Tris-HEPES and 250 mM sucrose, pH 7.4) supplemented with protease inhibitors described before using a tight-fitting Dounce homogenizer for 25 strokes. Two subsequent centrifugation steps at 4°C of firstly 20 min at 4,000 g followed by supernatant centrifugation for 60 min at 100,000 g ensured harvesting of the membrane fraction. The pellet was resuspended in ice-cold protease free TS buffer and passed 25 times through a 27-gauge needle to enhance membrane vesicle formation. Protein concentration in these vesicles was determined using the Bio-Rad protein assay, vesicles were flash-frozen in N2 and stored at -80°C.
A rapid filtration technique that has been described earlier was applied to evaluate uptake of transporter specific substrates into the vesicles; NMQ for P-gp, E1S for BCRP, E217βG for MRP1-4 and TCA for BSEP [20]. Briefly, 0.015-0.15 μCi of labelled substrate was combined with unlabelled substrates to a concentration of 0.1-1 μM in a 30 μL reaction mixture with 4 mM ATP, 10 mM MgCl2 and 7.5 μg total protein membrane vesicles in TS buffer. Transport was allowed by transfer of the plates to 37°C during 1–5 min, a time-point within the linear phase of time-dependent transport, as previously determined [15–19]. Hereafter, the reaction was rapidly stopped by placing the plates back on ice and the addition of 150 μL ice-cold TS buffer. Samples were subsequently transferred to a 96-well filter plate that had been pre-incubated with TS buffer, and filtered using a multiscreen HTS-vacuum manifold filtration device (Millipore). […] Radioactive signal on the filters was determined by liquid scintillation counting. […]
All concentrations were tested in duplicates or triplicates in two individual biological replicates containing vesicles of independent transductions. […] IC50 values were determined by nonlinear regression analysis of (log) inhibitor-response curves with variable slope. […]

MRP3 = tested on: T2, MRP3; assay: Vesicular transport assay, MRP3-mediated E217βG uptake in HEK293 membrane vesicles; type: biochemical, human; conditions: 100 μM compound; E217βG 150 nM; solvent control = 100% transport
T2 construct: made in house; host or cells: HEK293 cells transduced with baculovirus; isolated membrane vesicles
Description: Some sequences did hold silent mutations of described polymorphisms.

MRP2 = tested on: T3, MRP2; assay: Vesicular transport assay, MRP2-mediated E217βG uptake in HEK293 membrane vesicles; type: biochemical, human; conditions: 100 μM compound; E217βG 150 nM; solvent control = 100% transport
T3 construct: made in house; host or cells: HEK293 cells transduced with baculovirus; isolated membrane vesicles
Protocol: (§1) Human P-gp, BCRP, BSEP and MRP1-4 had previously been cloned into the Gateway pDONR221 vector. […] Gateway cloning was used to transfer the genes into a VSV-G improved pFastBacDual vector for mammalian cell transduction. The production of baculovirus was executed according to the Invitrogen Bac-to-Bac manual.
(§2) HEK293 cells were grown to 40% confluency in Dulbecco’s modified Eagle’s medium-GlutaMAX-I containing 10% foetal calf serum at 5% CO2 in 500 cm^2 triple flasks. […]
(§3) Cells were harvested three days post transduction by a 5-min centrifugation step at 3,000 g. […] Protein concentration in these vesicles was determined using the Bio-Rad protein assay, vesicles were flash-frozen in N2 and stored at -80°C.
(§4) A rapid filtration technique that has been described earlier was applied to evaluate uptake of transporter specific substrates into the vesicles; NMQ for P-gp, E1S for BCRP, E217βG for MRP1-4 and TCA for BSEP [20]. […] Transport was allowed by transfer of the plates to 37°C during 1–5 min, a time-point within the linear phase of time-dependent transport, as previously determined. […] Radioactive signal on the filters was determined by liquid scintillation counting. […]
(§5) In the first screen, all anti-malarial compounds were added to the reaction mixture to evaluate transport inhibition at a concentration of 100 μM. […] Results were depicted and statistically analysed using Graphpad Prism, version 5.03. […]

[2] = cited from earlier work
MRP1 = tested on: T4, MRP1; assay: Vesicular transport assay, MRP1-mediated E217βG uptake in HEK293 membrane vesicles; type: biochemical, human; conditions: 100 μM compound; E217βG 150 nM; solvent control = 100% transport
T4 construct: made in house; host or cells: HEK293 cells transduced with baculovirus; isolated membrane vesicles
Protocol: as §1, §2, §3, §4, §5

[3] = biological target: T5, breast cancer resistance protein (BCRP/ABCG2) (Homo sapiens, UniProt Q9UNQ0); assay: Vesicular transport assay, BCRP-mediated estrone sulphate uptake in HEK293 membrane vesicles; conditions: for BCRP-mediated estrone sulphate transport, percentage of solvent control: 100 μM compound, estrone sulphate 74 nM, solvent control = 100% transport
T5 sequence (Q9UNQ0 1-655): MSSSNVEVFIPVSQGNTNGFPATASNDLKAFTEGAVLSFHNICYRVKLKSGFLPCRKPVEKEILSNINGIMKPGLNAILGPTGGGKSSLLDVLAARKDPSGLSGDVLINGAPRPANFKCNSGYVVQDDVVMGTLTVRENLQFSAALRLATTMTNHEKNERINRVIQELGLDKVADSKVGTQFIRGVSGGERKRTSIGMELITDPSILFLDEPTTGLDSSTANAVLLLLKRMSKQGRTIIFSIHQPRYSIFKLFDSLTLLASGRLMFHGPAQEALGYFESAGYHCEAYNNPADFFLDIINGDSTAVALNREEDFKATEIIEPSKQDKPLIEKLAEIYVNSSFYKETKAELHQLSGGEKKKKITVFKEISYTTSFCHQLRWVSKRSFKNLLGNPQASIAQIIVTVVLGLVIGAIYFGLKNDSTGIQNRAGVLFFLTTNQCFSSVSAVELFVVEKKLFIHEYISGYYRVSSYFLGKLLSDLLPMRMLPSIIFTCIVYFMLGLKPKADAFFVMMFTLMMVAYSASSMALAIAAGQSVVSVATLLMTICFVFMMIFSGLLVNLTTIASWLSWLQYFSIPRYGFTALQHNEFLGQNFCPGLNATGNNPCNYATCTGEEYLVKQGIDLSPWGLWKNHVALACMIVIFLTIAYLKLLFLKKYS
Protocol: as §1
(§6) HEK293 cells were grown to 40% confluency in Dulbecco’s modified Eagle’s medium-GlutaMAX-I containing 10% foetal calf serum at 5% CO2 in 500 cm^2 triple flasks. Culture medium was removed and 25 mL of medium combined with 10 mL virus was added and incubated at RT for 20 min, followed by the addition of another 40 mL of complete medium including 5 mM sodium butyrate to enhance protein expression.
(§7) Cells were harvested three days post transduction by a 5-min centrifugation step at 3,000 g. Cells were resuspended in ice-cold hypotonic buffer (0.5 mM sodium phosphate, 0.1 mM EDTA, pH 7.0) containing protease inhibitors ([…] phenylmethylsulfonyl fluoride, 5 mg/ml aprotinin, 5 mg/ml leupeptin, 1 mg/ml pepstatin and 1 mg/ml E-64) and shaken at 4°C for 30 min. This lysate was centrifuged 100,000 xg for 30 min at 4°C, after which the pellet was homogenized in ice-cold TS buffer (10 mM Tris-HEPES and 250 mM sucrose, pH 7.4) supplemented with protease inhibitors described before using a tight-fitting Dounce homogenizer for 25 strokes. Two subsequent centrifugation steps at 4°C of firstly 20 min at 4,000 g followed by supernatant centrifugation for 60 min at 100,000 g ensured harvesting of the membrane fraction. The pellet was resuspended in ice-cold protease free TS buffer and passed 25 times through a 27-gauge needle to enhance membrane vesicle formation. Protein concentration in these vesicles was determined using the Bio-Rad protein assay, vesicles were flash-frozen in N2 and stored at -80°C.
(§8) A rapid filtration technique that has been described earlier was applied to evaluate uptake of transporter specific substrates into the vesicles; NMQ for P-gp, E1S for BCRP, E217βG for MRP1-4 and TCA for BSEP [20]. Briefly, 0.015-0.15 μCi of labelled substrate was combined with unlabelled substrates to a concentration of 0.1-1 μM in a 30 μL reaction mixture with 4 mM ATP, 10 mM MgCl2 and 7.5 μg total protein membrane vesicles in TS buffer. Transport was allowed by transfer of the plates to 37°C during 1–5 min, a time-point within the linear phase of time-dependent transport, as previously determined. Hereafter, the reaction was rapidly stopped by placing the plates back on ice and the addition of 150 μL ice-cold TS buffer. Samples were subsequently transferred to a 96-well filter plate that had been pre-incubated with TS buffer, and filtered using a multiscreen HTS-vacuum manifold filtration device (Millipore). Filters were washed and extracted, after which 2 mL scintillation fluid was added to each filter. Radioactive signal on the filters was determined by liquid scintillation counting. Negative controls included eYFP-transduced vesicles and AMP instead of ATP in the reaction mixture.
In the first screen, all anti-malarial compounds were added to the reaction mixture to evaluate transport inhibition at a concentration of 100 μM. […] When ATP-dependent uptake was reduced more than 66.7%, the compound was considered a potential inhibitor, and multiple concentrations were tested in the reaction mixture to determine the IC50 value. All concentrations were tested in duplicates or triplicates in two individual biological replicates containing vesicles of independent transductions. Results were depicted and statistically analysed using Graphpad Prism, version 5.03. IC50 values were determined by nonlinear regression analysis of (log) inhibitor-response curves with variable slope.

[4] = biological target: P-glycoprotein (P-gp/ABCB1) (Homo sapiens, UniProt P08183); assay: Vesicular transport assay, P-gp-mediated NMQ uptake in HEK293 membrane vesicles; conditions: for P-gp-mediated NMQ transport, percentage of solvent control: 100 μM compound, NMQ 7 nM radio-labelled + 90 nM unlabelled, solvent control = 100% transport
Protocol: as §1, §6, §7, §8
In the first screen, all anti-malarial compounds were added to the reaction mixture to evaluate transport inhibition at a concentration of 100 μM. […] Results were depicted and statistically analysed using Graphpad Prism, version 5.03. IC50 values were determined by nonlinear regression analysis of (log) inhibitor-response curves with variable slope.

BCRP = conditions: cited from earlier work; for IC50: described as BCRP inhibitors, not substrates, read-out: IC50 of BCRP inhibition
[5] = set-up: method as in PMID 21600016; conditions: 12-hour measurement interval; co-administration with ATO/PG (250/100 mg) prophylaxis, one HIV patient; cited from earlier work
[6] = daily prophylactic dose of 250 mg

Sequence of P-glycoprotein (P-gp/ABCB1) (P08183 whole entry): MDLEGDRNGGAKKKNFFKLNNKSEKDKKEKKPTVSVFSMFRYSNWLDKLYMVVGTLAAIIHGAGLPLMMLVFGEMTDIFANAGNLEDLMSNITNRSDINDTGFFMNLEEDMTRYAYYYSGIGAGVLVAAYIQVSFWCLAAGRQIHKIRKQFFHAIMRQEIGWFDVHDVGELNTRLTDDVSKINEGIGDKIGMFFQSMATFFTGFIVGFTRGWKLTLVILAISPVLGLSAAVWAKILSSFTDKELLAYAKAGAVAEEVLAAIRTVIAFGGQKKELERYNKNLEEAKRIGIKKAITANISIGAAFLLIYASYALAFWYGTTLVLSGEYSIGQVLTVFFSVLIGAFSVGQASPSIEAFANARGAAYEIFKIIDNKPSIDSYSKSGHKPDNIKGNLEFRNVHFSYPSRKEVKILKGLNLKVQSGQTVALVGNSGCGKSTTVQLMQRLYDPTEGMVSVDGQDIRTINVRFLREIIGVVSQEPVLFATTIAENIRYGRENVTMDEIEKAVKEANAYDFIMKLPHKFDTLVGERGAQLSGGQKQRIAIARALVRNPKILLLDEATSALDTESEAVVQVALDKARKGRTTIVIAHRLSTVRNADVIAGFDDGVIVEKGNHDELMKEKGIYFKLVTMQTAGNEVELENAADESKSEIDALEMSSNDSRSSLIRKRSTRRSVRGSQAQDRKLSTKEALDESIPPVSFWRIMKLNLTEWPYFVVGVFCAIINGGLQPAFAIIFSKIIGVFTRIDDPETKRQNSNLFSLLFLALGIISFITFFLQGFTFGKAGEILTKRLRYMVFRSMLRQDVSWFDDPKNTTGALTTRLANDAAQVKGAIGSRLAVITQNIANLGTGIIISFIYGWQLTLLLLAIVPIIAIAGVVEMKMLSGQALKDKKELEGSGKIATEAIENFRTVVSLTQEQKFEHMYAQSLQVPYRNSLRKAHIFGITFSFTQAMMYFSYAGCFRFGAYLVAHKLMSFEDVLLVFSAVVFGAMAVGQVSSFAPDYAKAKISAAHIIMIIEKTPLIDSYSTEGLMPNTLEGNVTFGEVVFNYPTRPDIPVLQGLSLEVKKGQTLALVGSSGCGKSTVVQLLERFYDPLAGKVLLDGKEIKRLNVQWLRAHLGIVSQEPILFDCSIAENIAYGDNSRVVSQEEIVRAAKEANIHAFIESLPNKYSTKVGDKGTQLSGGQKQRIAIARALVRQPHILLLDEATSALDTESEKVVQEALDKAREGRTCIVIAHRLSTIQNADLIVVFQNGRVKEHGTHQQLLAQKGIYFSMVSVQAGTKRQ

For `C[C@@H]1CC[C@H]2[C@@H](C)C(=O)O[C@@H]3O[C@@]4(C)CC[C@@H]1[C@]32OO4` [ART, artemisinin], the “BSEP-mediated taurocholic acid transport, percentage of solvent control” value [1] was 117%, the “MRP3-mediated estradiol 17-β-D glucuronide transport, percentage of solvent control” value (MRP3) was 122% and the “MRP2-mediated estradiol 17-β-D glucuronide transport, percentage of solvent control” value (MRP2) was 151%.

In the case of `O=C1C(O)=C([C@H]2CC[C@H](c3ccc(Cl)cc3)CC2)C(=O)c2ccccc21` [ATO, atovaquone], the “Maximal blood plasma concentration” value [2, 6] is given as “around 14 μM”, the “Maximal blood plasma concentration, range” value [2, 6] is given as 8 to 26 µM and the “BSEP-mediated taurocholic acid transport, percentage of solvent control” value [1] is given as 54%. The “MRP1-mediated estradiol 17-β-D glucuronide transport, percentage of solvent control” value (MRP1) was 141%, the “MRP2-mediated estradiol 17-β-D glucuronide transport, percentage of solvent control” value (MRP2) was 162% and the IC50 [3] was 0.23 µM. The “BCRP-mediated estrone sulphate transport, percentage of solvent control” value [3] was 22%.

In the case of `CCN(CC)CCCC(C)Nc1ccnc2cc(Cl)ccc12` (stereo not shown) [CQ, chloroquine], the “P-gp-mediated NMQ transport, percentage of solvent control” value (from here on “P-gp-mediated NMQ transport, percentage”) [4] is reported as 50% and the “BCRP-mediated estrone sulphate transport, percentage of solvent control” value [3] is reported as 69%.

In the case of `C[C@H]1[C@@H](O)O[C@@H]2O[C@@]3(C)CC[C@H]4[C@H](C)CC[C@@H]1[C@@]24OO3` [DHA, dihydroartemisinin], the “P-gp-mediated NMQ transport, percentage” value [4] is reported as 112%, the “BSEP-mediated taurocholic acid transport, percentage of solvent control” value [1] is reported as 114% and the “MRP3-mediated estradiol 17-β-D glucuronide transport, percentage of solvent control” value (MRP3) is reported as 121%. The “BCRP-mediated estrone sulphate transport, percentage of solvent control” value [3] was 70%.

For `CCCCN(CCCC)CC(O)c1cc(Cl)cc2c1-c1ccc(Cl)cc1/C2=C/c1ccc(Cl)cc1` (stereo not shown) [L, lumefantrine], the “BCRP-mediated estrone sulphate transport, percentage of solvent control” value [3] was 44%.

In the case of `OC(c1cc(C(F)(F)F)nc2c(C(F)(F)F)cccc12)C1CCCCN1` (stereo not shown) [MQ, mefloquine], the IC50 [4] is reported as 72 µM, the “P-gp-mediated NMQ transport, percentage” value [4] is reported as 30% and the “BSEP-mediated taurocholic acid transport, percentage of solvent control” value [1] is reported as 72%. The “MRP1-mediated estradiol 17-β-D glucuronide transport, percentage of solvent control” value (MRP1) was 50%, the “MRP3-mediated estradiol 17-β-D glucuronide transport, percentage of solvent control” value (MRP3) was 70% and the IC50 [3] was 18 µM. For the same molecule, the “BCRP-mediated estrone sulphate transport, percentage of solvent control” value [3] was 8.5%.

For `[H]/N=C(\N/C(=N/[H])Nc1ccc(Cl)cc1)NC(C)C` [PG, proguanil], the “P-gp-mediated NMQ transport, percentage” value [4] was 76%, the IC50 [3] was 118 µM and the “BCRP-mediated estrone sulphate transport, percentage of solvent control” value [3] was 36%.

For `C=C[C@H]1C[N@@]2CC[C@H]1C[C@H]2[C@H](O)c1ccnc2ccc(OC)cc12` [Q, quinine], the Maximal plasma concentration ([2]; seven-day regimen of 10 mg/kg oral dose three times daily of quinine sulphate) is given as 30 µM.

In the case of `COC(=O)N[C@H](C(=O)N[C@@H](Cc1ccccc1)[C@@H](O)CN(Cc1ccc(-c2ccccn2)cc1)NC(=O)[C@@H](NC(=O)OC)C(C)(C)C)C(C)(C)C` [atazinavir], the “BCRP-mediated transport inhibition (in words)” value (BCRP) is given as “inhibitors of BCRP-mediated transport”.

For `O=C1Nc2ccc(Cl)cc2[C@@](C#CC2CC2)(C(F)(F)F)O1` [efavirenz], the “BCRP-mediated transport inhibition (in words)” value (BCRP) is listed as “inhibitors of BCRP-mediated transport”.

For `Cc1cc(C#N)cc(C)c1Oc1nc(Nc2ccc(C#N)cc2)nc(N)c1Br` [etravirine], the “Increase of AUC” value [5] is listed as 55% and the IC50 (BCRP) is listed as 1 µM.

In the case of `Cc1cccc(C)c1OCC(=O)N[C@@H](Cc1ccccc1)[C@@H](O)C[C@H](Cc1ccccc1)NC(=O)[C@H](C(C)C)N1CCCNC1=O` [lopinavir], the “BCRP-mediated transport inhibition (in words)” value (BCRP) is listed as “inhibitors of BCRP-mediated transport”.

For `Cc1nnc(C(=O)NC(C)(C)c2nc(C(=O)NCc3ccc(F)cc3)c(O)c(=O)n2C)o1` [raltegravir], the “BCRP inhibition (in words)” value (BCRP) is listed as “do not inhibit BCRP”.

In the case of `CC(C)(C)NC(=O)[C@@H]1C[C@@H]2CCCC[C@@H]2CN1C[C@@H](O)[C@H](Cc1ccccc1)NC(=O)[C@H](CC(N)=O)NC(=O)c1ccc2ccccc2n1` [saquinavir], the “Increase of AUC” value [5] is given as 274% and the IC50 (BCRP) is given as 19.5 µM.

In the case of maraviroc, the “BCRP inhibition (in words)” value (BCRP) is given as “do not inhibit BCRP”.

From article PMC4172838 (Malaria Journal, 2014)
